Data taken from patent publication US20080085889A1, “Amidomethyl-Substituted 1-(Carboxyalkyl) Cyclopentyl-Carbonylamino-Benzazepine-N-Acetic Acid Compounds, Process and Intermediate Products for Their Preparation and Pharmaceutical Compositions Containing Them” (SOLVAY PHARMACEUTICALS GmbH, priority 2003, published 2008).
“Also recorded” adds a separate entry of the source. Marks after values point to notes of the source that are not given here.

What was measured:
[1] = test system: formation of ET-1 from Big-ET-1; assay: In vivo inhibition of the Big-ET-1-induced blood pressure increase in anaesthetised rats, i.v. single dose; design: species or system Rats (Sprague-Dawley); conditions: 5 min before 0.5 nmol/kg Big-ET-1, negative values indicate inhibition
In short: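 Anaesthetised (Rompun/Ketavet) Sprague-Dawley rats got test substance i.v. via jugular vein, as a rule 10 μmol/kg, or vehicle; 5 min later 0.5 nmol/kg Big-ET-1 infused over 1 min. Carotid pressure recorded every 5 min for 30 min; value is % inhibition versus vehicle of maximum Big-ET-1-induced systolic pressure rise, negative values meaning inhibition.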

[2] = test system: maximal SAP response to Big-ET; assay: In vivo i.v. potency (ID50) to inhibit maximal SAP response to Big-ET in anesthetized rats; design: species or system Rats (Sprague-Dawley); conditions: Rattus norvegicus, iv, dose at which the pressor effect of Big-ET was suppressed by 50%
Description: Rats (Sprague-Dawley, CRLD=Charles River) were anaesthetised with 1 ml/kg Rompun/Ketavet 1:1. A pressure transducer (Statham) was inserted into the carotid artery to measure blood pressure.
For intravenous testing, one jugular vein was cannulated for administering the substance, and the other for administering Big-ET-1. […] Five minutes later, 0.5 nmol/kg Big-ET-1 was infused over a period of one minute. SAP, DAP, and heart rate were measured before administration of the substance, then before administration of Big-ET, and subsequently every five minutes after Big-ET administration over a period of 30 minutes using the pressure transducer in known manner. The maximum Big-ET-induced increase in blood pressure was calculated from the measured values as the difference between the value measured at the moment of maximum development of the Big-ET action (typically after 5 min) and the value measured before Big-ET infusion. The dose at which the pressor effect of Big-ET was suppressed by 50% (ID50) was estimated from the inhibitory effects observed over the range of dosages tested (n>5 rats for each dose).
The intravenous potency of the test compounds of Formula I (given as ID50 values) to inhibit the maximal SAP response to Big ET in anesthetized rats is set forth in the following Table 3b: […]

[3] = test system: TUNEL positive cells in heart, liver and kidney; assay: Adriamycin toxicity: determination of anti-apoptotic activity (TUNEL staining); assay type: in vivo, Wistar rats; conditions: for TUNEL positive cells, Heart / TUNEL positive cells, Kidney / TUNEL positive cells, Liver: ± SEM
Description: 2. Adriamycin Toxicity: Determination of Anti-Apoptotic Activity
Wistar rats, weighing 200-250 g, were anesthetized with chloral hydrate, 400 mg/kg, and Alzet osmotic minipumps (2 ML1), were implanted subcutaneously (=s.c.). The pumps had been filled with either vehicle or solution containing compounds of the invention at the appropriate concentration and primed prior to implantation. Animals subsequently received adriamycin at three equal daily doses of 5 mg/kg i.p. on days 1, 2 and 3. Rats were euthanized 5 days after the first injection of adriamycin and transcardially perfused with a solution containing 4% paraformaldehyde in phosphate buffer. The heart, liver and kidneys were subsequently removed and embedded in parafin.
TUNEL staining: For terminal deoxynucleotide transferase-mediated dUTP nick end-label (TUNEL) based histological analysis, organs were post-fixed for 5 days at 4° C. and paraffin-embedded. TUNEL staining was performed on 10 μm thick paraffin sections using the ApopTag Peroxidase kit (S 7100, Oncor Appligene, Heidelberg, Germany) according to the manufacturer's instructions. Briefly, after pretreatment with proteinase K and quenching of endogenous peroxidase, sections were incubated in equilibration buffer followed by working strength TdT enzyme (incorporating digoxigenin labeled dUTP nucleotides to free 3′-OH DNA termini), (1 hr, 37° C.). Sections were incubated in stop/wash buffer (30 min, 37° C.), then with anti-digoxigenin-peroxidase conjugate (30 min) followed by DAB substrate (Sigma, Deisenhofen, Germany) and lightly counterstained with methylgreen.
Wistar rats were administered adriamycin at the cumulative dose of 15 mg/kg i.p. The test substance of Example 4 was administered s.c. at the doses of 20, 50 or 100 mg/kg and day by means of Alzet osmotic minipumps over 5 days. Animals were euthanized and transcardially perfused 5 days after the first injection of adriamycin and the heart, kidney and liver were processed for TUNEL staining. Densities of TUNEL positive cells were determined as described in the methods. Results for each organ (heart, liver, kidney) were measured as mean densities of TUNEL positive cells ±SEM for the control groups and the different test groups (20, 50 or 100 mg/kg and day of test compound of Example 4) and listed in table 8 below.
Comparisons between groups were performed by means of Student's t test (**P<0.01; ***P<0.001 compared to vehicle treated rats).

[4] = Rattus norvegicus, iv, 10 μmol/kg, read-out: % substance-related inhibition of the maximum Big-ET effect on SAP vs. control
[5] = adriamycin 15 mg/kg cumulative i.p. + 20 mg/kg and day s.c. minipump over 5 days
[6] = adriamycin 15 mg/kg cumulative i.p. + 50 mg/kg and day s.c. minipump over 5 days
[7] = adriamycin 15 mg/kg cumulative i.p. + 100 mg/kg and day s.c. minipump over 5 days

CC(C)NC(=O)CC(CC1(C(=O)N[C@H]2CCc3ccccc3N(CC(=O)O)C2=O)CCCC1)C(=O)O (stereo in doubt) [Example 3, (2″rel1″)-2-{[(3S)-1-({[1-(carboxymethyl)-2-oxo-2,3,4,5-tetrahydro-1H-1-benzazepin-3-yl]amino}-carbonyl)cyclopentyl]methyl}-4-(isopropylamino)-4-oxobutyric acid]
change in vivo at 10 µmol/kg [1, 4]: -94%

CN(C)CCCN(C)C(=O)CC(CC1(C(=O)NC2CCc3ccccc3N(CC(=O)O)C2=O)CCCC1)C(=O)O (centres unmarked) [Example 64, 2-[(1-{[1-(carboxymethyl)-2-oxo-2,3,4,5-tetrahydro-1H-1-benzazepin-3-yl]carbamoyl}cyclopentyl)methyl]-4-{[3-(dimethylamino)propyl](methyl)amino}-4-oxobutanoic acid]
ED50 [2]: 0.2 µmol/kg
change in vivo at 10 µmol/kg [1, 4]: -108%

CCN(CCCCN)C(=O)CC(CC1(C(=O)NC2CCc3ccccc3N(CC(=O)O)C2=O)CCCC1)C(=O)O [Example 81, (2″rel1″)-4-[(4-aminobutyl)(ethyl)amino]-2-{[1-({[(3S)-1-(carboxymethyl)-2-oxo-2,3,4,5-tetrahydro-1H-1-benzazepin-3-yl]amino}carbonyl)cyclopentyl]methyl}-4-oxobutanoic acid]
ED50 [2]: 0.05 µmol/kg
change in vivo at 0.3 µmol/kg ([1]; Rattus norvegicus, iv, 0.3 μmol/kg, read-out: % substance-related inhibition of the maximum Big-ET effect on SAP vs. control): -73%

{(3S)-3-[({1-[(2″rel1″)-2-ethoxycarbonyl)-4-(isopropylamino)-4-oxobutyl]cyclopentyl}-carbonyl)amino]-2-oxo-2,3,4,5-tetrahydro-1H-1-benzazepin-1-yl}acetic acid [Example 4]
% substance-related inhibition of the maximum Big-ET effect on SAP vs. control ([1]; 10 μmol/kg): −95%
protection against adriamycin toxicity (densities of TUNEL positive cells) ([3]; 20, 50 or 100 mg/kg and day s.c., heart, liver, kidney): significant protection against adriamycin toxicity in the heart, liver and kidney; also recorded: dose-dependently decreased the cytotoxic effect of adriamycin in all three organs
TUNEL positive cells, Heart [3, 5]: 4.350 ± 0.248*** cells/mm3 × 102
TUNEL positive cells, Kidney [3, 5]: 7.900 ± 0.306*** cells/mm3 × 102
TUNEL positive cells, Liver [3, 5]: 8.750 ± 0.301** cells/mm3 × 102
TUNEL positive cells, Heart [3, 6]: 3.700 ± 0.260*** cells/mm3 × 102
TUNEL positive cells, Kidney [3, 6]: 7.850 ± 0.587** cells/mm3 × 102
TUNEL positive cells, Liver [3, 6]: 8.250 ± 0.271*** cells/mm3 × 102
TUNEL positive cells, Heart [3, 7]: 3.550 ± 0.157*** cells/mm3 × 102
TUNEL positive cells, Kidney [3, 7]: 6.300 ± 0.260*** cells/mm3 × 102
TUNEL positive cells, Liver [3, 7]: 7.450 ± 0.329*** cells/mm3 × 102
most effective dose against adriamycin toxicity ([3]; of 20, 50 or 100 mg/kg and day s.c.): 100 mg/kg and day
